Several values for one entry are separate records, joined by “and”; a condition that tells them apart may be missing. Equal entries are not always repeated.
Test system: Long Evans rats
Assay: Behavioral satiety sequence (BSS)
Format: in vivo, Long Evans rat
From the text: The Behavioural Satiety Sequence (BSS) is a technique used to evaluate physiological satiety. It is based on the expression of a sequence of behaviors including eating, grooming, locomotor activity, followed by resting, which are typically observed in rodents post-ingestion (Halford et al, 1998, Pharmacology Biochemistry and Behaviour. 61(2): 159-168). The BSS is a widely used model for determining the effects of novel pharmaceuticals on food intake and measures of satiety in rodents (Oliveira et al, 2011, Revista de Nutrição. 24(4) 619-628), and to discriminate the cause of reduced food intake following pharmacological manipulation. For example, treatments that may reduce food intake by non-specific mechanisms, such as immobility, malaise, and taste adulteration, will disrupt this sequence (Halford et al, 1998, Pharmacology Biochemistry and Behaviour. 61(2): 159-168).
Specifically, 12 male Long-Evans rats were food-deprived for 22 h with a 2 h feeding period each day. Rats were trained to consume daily food during the 2 h period over 25 days. The testing phase was initiated once the rats consistently consumed 16-18 g of food per day with ≤10% variance in amount of feed consumed. Feeding took place in designated individual boxes in a quiet room separate from the housing room. Continuous remote monitoring via video camera during feeding was used to assess the BSS. Food consumption was measured by weighing the total available food before and after the 2 h feeding window, correcting for spillage. Lorcaserin (1 mg/kg) was included as a reference control (Higgins et al, 2011, Neuropsychopharmacology. 37(5): 1177-1191). Subjects were tested using a repeated-measures, Latin square design with 2-3 days wash-out between treatment cycles.
On scheduled test days, animals were monitored remotely via video camera during the feeding access period. The occurrence of four mutually exclusive behaviors (eating/drinking, grooming, active, rest) were individually scored. Over the 2 h feeding period, behaviors were assessed every 30 seconds. Scores were compiled into 23 5 min timebins (timebin 24 was removed due to early removal of animals) and the frequency of each behavior within each timebin was calculated to determine a temporal frequency of each measure (Rodgers et al, 2010, Pharmacology Biochemistry and Behaviour. 97: 3-14). Percentage time was plotted for each behavioral sequence in each timebin to compare between treatment groups (Higgins et al, 2011, Neuropsychopharmacology. 37(5): 1177-1191).

[1] = Compound I-19 1 mg/kg, AVG of 12 animals
[2] = Compound I-19 1 mg/kg, raw score of individual animals LT-1 to LT-12
[3] = Compound I-19 3 mg/kg i.p., AVG of the group
[4] = Compound I-19 3 mg/kg i.p., raw score per animal

Compound: Clc1ccc(C2(OCC3OCCO3)c3ccccc3C3=NCCN32)cc1 (stereo not drawn) [Compound I-19]
- BSS scoring R (resting), Time Bin 13 (60-65 TOTAL), AVG [1]: 0.13
- BSS scoring R (resting), Time Bin 14 (65-70 TOTAL), AVG [1]: 0.10
- BSS scoring R (resting), Time Bin 15 (70-75 TOTAL), AVG [1]: 0.13
- BSS scoring R (resting), Time Bin 16 (75-80 TOTAL), AVG [1]: 0.18
- BSS scoring R (resting), Time Bin 17 (80-85 TOTAL), AVG [1]: 0.14
- BSS scoring R (resting), Time Bin 18 (85-90 TOTAL), AVG [1]: 0.30
- BSS scoring A (active), Time Bin 13 (60-65 TOTAL) [2]: 2 and 1 (3×) and 0 (6×) and 3 (2×)
- BSS scoring A (active), Time Bin 14 (65-70 TOTAL) [2]: 0 (4×) and 1 (4×) and 2 and 3 (2×) and 4
- BSS scoring A (active), Time Bin 15 (70-75 TOTAL) [2]: 0 (4×) and 2 (4×) and 1 (2×) and 5 (2×)
- BSS scoring A (active), Time Bin 16 (75-80 TOTAL) [2]: 1 (3×) and 2 and 0 (5×) and 4 (2×) and 6
- BSS scoring A (active), Time Bin 17 (80-85 TOTAL) [2]: 9 and 0 (5×) and 4 and 2 and 3 and 1 (3×)
- BSS scoring A (active), Time Bin 18 (85-90 TOTAL) [2]: 1 (3×) and 0 (5×) and 4 and 3 and 2 (2×)
- BSS scoring E (eating/drinking), Time Bin 13 (60-65 TOTAL) [2]: 8 (2×) and 6 (3×) and 10 (3×) and 0 and 9 (2×) and 5
- BSS scoring E (eating/drinking), Time Bin 14 (65-70 TOTAL) [2]: 10 (3×) and 8 (2×) and 9 and 1 and 7 (3×) and 5 and 6
- BSS scoring E (eating/drinking), Time Bin 15 (70-75 TOTAL) [2]: 10 (2×) and 8 (3×) and 7 (2×) and 6 and 3 (2×) and 4 (2×)
- BSS scoring E (eating/drinking), Time Bin 16 (75-80 TOTAL) [2]: 7 (3×) and 9 (2×) and 10 (2×) and 0 and 1 and 8 and 6 and 3
- BSS scoring E (eating/drinking), Time Bin 17 (80-85 TOTAL) [2]: 1 (2×) and 10 (3×) and 6 and 8 (2×) and 0 and 9 (3×)
- BSS scoring E (eating/drinking), Time Bin 18 (85-90 TOTAL) [2]: 9 (2×) and 6 and 7 (3×) and 1 (2×) and 0 (2×) and 8 and 10
- BSS scoring G (grooming), Time Bin 13 (60-65 TOTAL) [2]: 0 (7×) and 2 (2×) and 1 (3×)
- BSS scoring G (grooming), Time Bin 14 (65-70 TOTAL) [2]: 0 (8×) and 1 (4×)
- BSS scoring G (grooming), Time Bin 15 (70-75 TOTAL) [2]: 0 (9×) and 1 and 3 and 2
- BSS scoring G (grooming), Time Bin 16 (75-80 TOTAL) [2]: 2 and 1 and 0 (10×)
- BSS scoring G (grooming), Time Bin 17 (80-85 TOTAL) [2]: 0 (11×) and 1
- BSS scoring G (grooming), Time Bin 18 (85-90 TOTAL) [2]: 0 (8×) and 1 (4×)
- BSS scoring R (resting), Time Bin 13 (60-65 TOTAL) [2]: 0 (7×) and 1 (3×) and 10 and 2
- BSS scoring R (resting), Time Bin 14 (65-70 TOTAL) [2]: 0 (8×) and 8 and 2 and 1 (2×)
- BSS scoring R (resting), Time Bin 15 (70-75 TOTAL) [2]: 0 (5×) and 2 (2×) and 1 (3×) and 4 and 5
- BSS scoring R (resting), Time Bin 16 (75-80 TOTAL) [2]: 0 (6×) and 2 (2×) and 10 and 5 and 1 (2×)
- BSS scoring R (resting), Time Bin 17 (80-85 TOTAL) [2]: 0 (9×) and 2 and 5 and 10
- BSS scoring R (resting), Time Bin 18 (85-90 TOTAL) [2]: 0 (5×) and 1 (2×) and 2 and 7 (2×) and 8 and 10
- BSS scoring A (active), Time Bin 1 (0-5 TOTAL), AVG [3]: 0.11
- BSS scoring A (active), Time Bin 2 (5-10 TOTAL), AVG [3]: 0.02
- BSS scoring A (active), Time Bin 3 (10-15 TOTAL), AVG [3]: 0.11
- BSS scoring A (active), Time Bin 4 (15-20 TOTAL), AVG [3]: 0.13
- BSS scoring A (active), Time Bin 5 (20-25 TOTAL), AVG [3]: 0.06
- BSS scoring A (active), Time Bin 6 (25-30 TOTAL), AVG [3]: 0.11
- BSS scoring E (eating/drinking), Time Bin 1 (0-5 TOTAL), AVG [3]: 0.86
- BSS scoring E (eating/drinking), Time Bin 2 (5-10 TOTAL), AVG [3]: 0.93
- BSS scoring E (eating/drinking), Time Bin 3 (10-15 TOTAL), AVG [3]: 0.87
- BSS scoring E (eating/drinking), Time Bin 4 (15-20 TOTAL), AVG [3]: 0.83
- BSS scoring E (eating/drinking), Time Bin 5 (20-25 TOTAL), AVG [3]: 0.88
- BSS scoring E (eating/drinking), Time Bin 6 (25-30 TOTAL), AVG [3]: 0.84
- BSS scoring G (grooming), Time Bin 1 (0-5 TOTAL), AVG [3]: 0.03
- BSS scoring G (grooming), Time Bin 2 (5-10 TOTAL), AVG [3]: 0.03
- BSS scoring G (grooming), Time Bin 3 (10-15 TOTAL), AVG [3]: 0.01
- BSS scoring G (grooming), Time Bin 4 (15-20 TOTAL), AVG [3]: 0.02
- BSS scoring G (grooming), Time Bin 5 (20-25 TOTAL), AVG [3]: 0.05
- BSS scoring G (grooming), Time Bin 6 (25-30 TOTAL), AVG [3]: 0.01
- BSS scoring R (resting), Time Bin 1 (0-5 TOTAL), AVG [3]: 0.00
- BSS scoring R (resting), Time Bin 2 (5-10 TOTAL), AVG [3]: 0.02
- BSS scoring R (resting), Time Bin 3 (10-15 TOTAL), AVG [3]: 0.02
- BSS scoring R (resting), Time Bin 4 (15-20 TOTAL), AVG [3]: 0.02
- BSS scoring R (resting), Time Bin 5 (20-25 TOTAL), AVG [3]: 0.02
- BSS scoring R (resting), Time Bin 6 (25-30 TOTAL), AVG [3]: 0.04
- BSS scoring A (active), Time Bin 1 (0-5 TOTAL) [4]: 2 and 1 (8×) and 3 and 0 (2×)
- BSS scoring A (active), Time Bin 2 (5-10 TOTAL) [4]: 1 (2×) and 0 (10×)
- BSS scoring A (active), Time Bin 3 (10-15 TOTAL) [4]: 2 (4×) and 1 (2×) and 0 (5×) and 3
- BSS scoring A (active), Time Bin 4 (15-20 TOTAL) [4]: 0 (6×) and 3 (2×) and 2 and 6 and 1 (2×)
- BSS scoring A (active), Time Bin 5 (20-25 TOTAL) [4]: 1 (7×) and 0 (5×)
- BSS scoring A (active), Time Bin 6 (25-30 TOTAL) [4]: 2 (2×) and 1 (5×) and 0 (4×) and 4
- BSS scoring E (eating/drinking), Time Bin 1 (0-5 TOTAL) [4]: 8 (4×) and 9 (6×) and 7 and 10
- BSS scoring E (eating/drinking), Time Bin 2 (5-10 TOTAL) [4]: 8 (3×) and 10 (7×) and 9 (2×)
- BSS scoring E (eating/drinking), Time Bin 3 (10-15 TOTAL) [4]: 8 (4×) and 9 (2×) and 10 (4×) and 7 (2×)
- BSS scoring E (eating/drinking), Time Bin 4 (15-20 TOTAL) [4]: 9 (2×) and 7 (2×) and 10 (4×) and 8 (3×) and 4
- BSS scoring E (eating/drinking), Time Bin 5 (20-25 TOTAL) [4]: 9 (4×) and 10 (3×) and 8 (4×) and 7
- BSS scoring E (eating/drinking), Time Bin 6 (25-30 TOTAL) [4]: 8 (2×) and 9 (3×) and 10 (4×) and 5 and 7 and 6
- BSS scoring G (grooming), Time Bin 1 (0-5 TOTAL) [4]: 0 (9×) and 1 (2×) and 2
- BSS scoring G (grooming), Time Bin 2 (5-10 TOTAL) [4]: 1 (2×) and 0 (9×) and 2
- BSS scoring G (grooming), Time Bin 3 (10-15 TOTAL) [4]: 0 (11×) and 1
- BSS scoring G (grooming), Time Bin 4 (15-20 TOTAL) [4]: 0 (10×) and 1 (2×)
- BSS scoring G (grooming), Time Bin 5 (20-25 TOTAL) [4]: 0 (6×) and 1 (6×)
- BSS scoring G (grooming), Time Bin 6 (25-30 TOTAL) [4]: 0 (11×) and 1
- BSS scoring R (resting), Time Bin 1 (0-5 TOTAL) [4]: 0
- BSS scoring R (resting), Time Bin 2 (5-10 TOTAL) [4]: 0 (10×) and 1 (2×)
- BSS scoring R (resting), Time Bin 3 (10-15 TOTAL) [4]: 0 (11×) and 2

From patent US20250108038A1 (priority 2023, published 2025)
